Experimental data: publication PMC5653750, “hiPSC-CM Monolayer Maturation State Determines Drug Responsiveness in High Throughput Pro-Arrhythmia Screen” (Scientific Reports, 2017)

How the values were obtained:
[1] = system: fetal-like hiPSC-CM monolayers; assay: 96-well optical mapping of action potentials (FluoVolt), fetal-like monolayers; type: cell-based, human; conditions: for Maximum APD 80 Prolongation Risk Score (Fetal-like hiPSC-CM): maximal effect on APD independent of dose, APD80 divided by vehicle control APD80, 30 min treatment, concentrations up to 10 µM; for effect on action potential duration (APD80), fetal-like monolayers: spontaneous action potentials, result in words
Source text: (§1) hiPSC-CMs were used from two different commercial sources: Cellular Dynamics International (CDI, Madison WI) and Cellartis (Takara Bio USA). Custom made 96-well plates with inserts of PDMS (Polydimethylsiloxane) were generated essentially as before. PDMS vulcanized silicone transparent sheeting was obtained from SMI (Specialty Manufacturing, Inc, Saginaw, MI) with 40D (D, Durometer or ≈1000 kPa) hardness and 9 mm diameter coverslips were cut out to fit in each well of 96 well plates. PDMS coverslips were manually added to each well of 96 well plates (Corning) and each plate was subsequently sterilized via ethylene oxide sterilization. PDMS coverslips were then matrigel-coated (500 μg/mL; BD Biosciences, San Jose, CA) prior to plating hiPSC-CMs. Thawing and plating of cryopreserved vials of cells into 96-well plates was as essentially described before. Briefly, 5 × 10^4 cells were plated per well and allowed to form continuous monolayers and maintained in RPMI (Life Technologies) media supplemented with B27 + insulin (Life Technologies). Monolayers were maintained in culture for seven days before electrophysiological testing. Immature fetal-like hiPSC-CM monolayers were generated in 96 well plates without the PDMS coverslip inserts. Fetal-like hiPSC-CMs were also plated on matrigel coated plastic bottoms.
(§2) Optical mapping was performed as essentially described recently[22] with slight modification. A schematic of the 96-well plate optical mapping set up is shown in supplemental Fig. 1. In this assay a 96-well plate is positioned below a high speed CCD camera (200 fps, 80 × 80 pixels) on a heating block to enable recording at physiological temperature (37 °C). hiPSC-CM monolayers were loaded with the membrane potential dye called FluoVolt™ which is commercially available (ThermoFisher Scientific, F10488). Blue LED illumination was used and spontaneous or electrically excited action potentials were recorded with the CCD camera via appropriate emission filter (515 nm, green light, Chroma). For calcium flux quantification monolayers were loaded with fluo-4AM (10 µM). In this assay a 6 × 6 array of wells (supplemental Fig. 1C, 36 wells total) in the 96-well plate could be imaged simultaneously to enable rapid dose response data for all compounds using up to six different doses. Post-acquisition data analysis was done using custom software (Scroll)[22],[25] with automated peak detection capability and automated repolarization quantification to determine APD80 (action potential at 80% of repolarization). […] In some experiments electrical pacing was done to control for rate of activations (supplemental Fig. 3). A custom made frame of field stimulation electrodes was engineered to enable electrical pacing to the 6 × 6 array of wells.
(§3) Action potentials were recorded in the presence of each test compound.
(§4) The effect of each compound to prolong or shorten the APD80 of hiPSC-CM monolayers was quantified relative to vehicle control values obtained in each plate. In other words, the APD80 or CaTD80 quantified at each concentration of each compound was divided by the APD80 or CaTD80 quantified for vehicle control wells. Risk score values were quantified for both fetal-like and mature hiPSC-CM monolayers.

[2] = system: mature hiPSC-CM monolayers; assay: 96-well optical mapping of action potentials (FluoVolt), mature monolayers; type: cell-based, human; conditions: for Maximum APD 80 Prolongation Risk Score (Mature hiPSC-CM): maximal effect on APD independent of dose, APD80 divided by vehicle control APD80, 30 min treatment, concentrations up to 10 µM; for effect on action potential duration (APD80), mature monolayers: spontaneous action potentials, result in words
Source text: as §1, §2, §3, §4

[3] = parameters: method as in PMID 26893184; conditions: cited from earlier work
[4] = system: mature hiPSC-CM monolayers; assay: Calcium flux optical mapping (fluo-4AM), mature monolayers; type: cell-based, human; conditions: dose response; n = 4 per dose
Protocol: (§5) Optical mapping was performed as essentially described recently[22] with slight modification. A schematic of the 96-well plate optical mapping set up is shown in supplemental Fig. 1. In this assay a 96-well plate is positioned below a high speed CCD camera (200 fps, 80 × 80 pixels) on a heating block to enable recording at physiological temperature (37 °C). hiPSC-CM monolayers were loaded with the membrane potential dye called FluoVolt™ which is commercially available (ThermoFisher Scientific, F10488). Blue LED illumination was used and spontaneous or electrically excited action potentials were recorded with the CCD camera via appropriate emission filter (515 nm, green light, Chroma). For calcium flux quantification monolayers were loaded with fluo-4AM (10 µM). […] Post-acquisition data analysis was done using custom software (Scroll)[22],[25] with automated peak detection capability and automated repolarization quantification to determine APD80 (action potential at 80% of repolarization). […]
(§6) Nilotinib is an anti-cancer kinase inhibitor compound with possible side effects to prolong the QT interval. […] In Fig. 7 calcium transients were recorded using fluo-4AM loaded monolayers to study the effect of nilotinib on intracellular calcium flux dynamics. […]

[5] = system: fetal-like hiPSC-CM monolayers; assay: Calcium flux optical mapping (fluo-4AM), fetal-like monolayers; type: cell-based, human; conditions: dose response; n = 4 per dose
Protocol: as §5, §6

SMILES | Maximum APD 80 Prolongation Risk Score (Fetal-like hiPSC-CM) [1] | effect on action potential duration (APD80), fetal-like monolayers [1] | Maximum APD 80 Prolongation Risk Score (Mature hiPSC-CM) [2] | effect on action potential duration (APD80), mature monolayers [2] | other results
CCCCc1oc2ccccc2c1C(=O)c1cc(I)c(OCCN(CC)CC)c(I)c1 [Amiodarone, amiodarone] | 0.91 | shortened action potential duration | 1.34 | prolong the APD | 
CC(C)COCC(CN(Cc1ccccc1)c1ccccc1)N1CCCC1 (stereo not shown) [Bepridil, bepridil] |  |  | 1.64 |  | CiPA risk class for causing Torsade de Pointes (TdP) [3]: high risk
COc1cc(N)c(Cl)cc1C(=O)NC1CCN(CCCOc2ccc(F)cc2)CC1OC (stereo not shown) [Cisapride, cisapride] | 1.49 |  | 1.15 |  | CiPA risk class for causing Torsade de Pointes (TdP) [3]: intermediate risk
CN1CCN(C2=Nc3cc(Cl)ccc3Nc3ccccc32)CC1 [Clozapine, clozapine] | 1.14 |  | 1.33 |  | 
COc1ccc([C@@H]2Sc3ccccc3N(CCN(C)C)C(=O)[C@@H]2OC(C)=O)cc1 [Diltiazem, diltiazem] | 0.97 |  |  |  | 
CN(CCOc1ccc(NS(C)(=O)=O)cc1)CCc1ccc(NS(C)(=O)=O)cc1 [Dofetilide, dofetilide] | 2.14 |  |  | did not have as severe action potential duration prolongation | action potential duration alternans, fetal-like monolayers ([1]; electrical pacing 1 Hz, 100 nM): action potential duration alternans were apparent; action potential duration alternans, mature monolayers ([2]; electrical pacing 1 Hz, 100 nM): not in the mature hiPSC-CM monolayers
COc1cccc2c1C(=O)c1c(O)c3c(c(O)c1C2=O)C[C@@](O)(C(=O)CO)C[C@@H]3O[C@H]1C[C@H](N)[C@H](O)[C@H](C)O1 [Doxorubicin, doxorubicin] | 1.15 |  | 1.15 |  | 
CNCCC(Oc1ccc(C(F)(F)F)cc1)c1ccccc1 (stereo not shown) [Fluoxetine, fluoxetine] | 1 | did not detect any APD80 prolongation |  | prolonged the action potential duration | monolayers in which quiescence was caused ([1]; 10.0 µmol L^−1, 8/8 monolayers): 100%; spontaneous beating frequency, fetal-like monolayers ([1]; sub-maximal doses (below 10.0 µmol L^−1)): nor alteration of the spontaneous beating frequency; spontaneous beating rate, mature monolayers [2]: slowed the spontaneous beating rate; quiescence, mature monolayers ([2]; any concentration tested (up to 10.0 µmol L^−1)): did not induce quiescence at any concentration tested; lowest concentration tested, at which action potential duration was already prolonged ([2]; mature monolayers): 1.0 nmol/L
Cc1cn(-c2cc(NC(=O)c3ccc(C)c(Nc4nccc(-c5cccnc5)n4)c3)cc(C(F)(F)F)c2)cn1 [Nilotinib, nilotinib] | 1.36 | APD prolongation was detected | 1.29 | APD prolongation was detected | calcium transient duration 80 (CaTD80), mature monolayers [4]: increased calcium transient duration 80 (CaTD80) in a dose dependent manner; calcium transient duration 80 (CaTD80), fetal-like monolayers [5]: increased calcium transient duration 80 (CaTD80) in a dose dependent manner
C=C[C@H]1C[N@@]2CC[C@H]1C[C@@H]2[C@@H](O)c1ccnc2ccc(OC)cc12 [Quinidine, quinidine] | 1.91 |  | 1.81 |  | 
CC/C(=C(\c1ccccc1)c1ccc(OCCN(C)C)cc1)c1ccccc1 [Tamoxifen, tamoxifen] | 1.12 |  | 1.04 |  | 
CC(C)(C)c1ccc(C(O)CCCN2CCC(C(O)(c3ccccc3)c3ccccc3)CC2)cc1 (stereo not shown) [Terfenadine, terfenadine] | 1.43 | more sensitive | 1.21 |  | CiPA risk class for causing Torsade de Pointes (TdP) [3]: intermediate risk
